From patent publication US20050171084A1, “Methods of treatment with lxr modulators” (priority 2002, published 2005)

How the values were obtained:
ABCA1 = ABCA1 gene expression in the CNS after oral dosing; format: in vivo, C57 B1/6 mice; conditions: oral gavage, Example 1 10 mg kg twice daily, T0901317 50 mg/kg once daily
Description: (§1) Total RNA was isolated from tissue and cell culture samples using TRIzol reagent (GibcoBRL). Briefly, tissue samples were thawed directly in 1 ml Trizol/50 mg tissue and homogenized with a polytron. To facilitate recovery of nucleic acid, 100 μg glycogen (Ambion) was added. Cultured cells were lysed in 1 ml Trizol containing 100 μg glycogen per well. Samples were then extracted in chloroform and spun at 4° C. at 11,000×g for 15 min. The aqueous phase was collected and the RNA was precipitated with the addition of isopropanol. The samples were then spun at 11,000×g at 4° C. for 15 min, the pellet washed in 75% ethanol, dried, and dissolved in water. Samples were stored at −70° C. until use.
(§2) Total RNA samples were diluted to 100 μg/ml and treated with 40 units/ml […] DNAse-I (Ambion) for 30 min at 37° C. followed by inactivation at 75° C. for 5 min. Samples were quantitated by spectrophotometry or with the RiboGreen assay (Molecular Probes) and diluted to a concentration of 10 ng/μl. Samples were then assayed in duplicate or triplicate 25-μl reactions using 25 ng RNA per reaction with Perkin Elmer chemistry on an ABI Prism 7700 (Perkin Elmer) according to manufacturer's instructions. Gene-specific primers were used at 7.5 or 22.5 pmol per reaction, optimized for each gene examined, and the gene-specific probe was used at 5 pmol per reaction. Primers and probe were synthesized by Keystone Labs (Camarillo, Calif.). In this system, the probe is degraded by Taq polymerase during the amplification phase, releasing the fluorescent tag from its quenched state; amplification data is expressed as the number of PCR cycles required to elevate the fluorescence signal beyond a threshold intensity level. Fold induction values were calculated by subtracting the mean threshold cycle number (Ct) for each treatment group from the mean Ct for the vehicle group and raising 2 to the power of this difference.
(§3) Adult male C57 B1/6 mice (3 per group) were dosed by oral gavage with the LXR agonists Example 1, T0901317, or vehicle (0.5% methylcellulose). Example 1 was delivered at 10 mg kg twice daily, while T0901317 was administered at 50 mg/kg once daily. After 3 or 7 days' treatment, animals were killed and their brains removed. The cerebellum and both hippocampi were dissected and snap frozen in liquid nitrogen for RNA isolation. Total RNA was prepared from the hippocampus and cerebellum (black bars) and analyzed for gene expression patterns using QRT-PCR (as described above). Expression levels for each gene in each tissue were normalized to the average expression level in the vehicle group. Both LXR agonists enhanced ABCA1 expression relative to the vehicle-treated group, with the effect most pronounced in the cerebellum after 3 days' treatment.

ABCG1 [1] = assay: ABCG1 gene expression in the CNS after oral dosing; format: in vivo, C57 B1/6 mice; conditions: oral gavage, Example 1 10 mg kg twice daily, T0901317 50 mg/kg once daily
Description: as §1, §2, §3

ABCG1 [2] = assay: ABCG1 gene expression in primary neuron cultures (QRT-PCR); format: cell-based, mouse; conditions: Neurons
Description: as §1
(§4) Total RNA samples were diluted to 100 μg/ml and treated with 40 units/ml […] DNAse-I (Ambion) for 30 min at 37° C. followed by inactivation at 75° C. for 5 min. Samples were quantitated by spectrophotometry or with the RiboGreen assay (Molecular Probes) and diluted to a concentration of 10 ng/μl. […] In this system, the probe is degraded by Taq polymerase during the amplification phase, releasing the fluorescent tag from its quenched state; amplification data is expressed as the number of PCR cycles required to elevate the fluorescence signal beyond a threshold intensity level. […]

SREBP-1c [3] = assay: SREBP-1c gene expression in primary neuron cultures (QRT-PCR); format: cell-based, mouse; conditions: Neurons
Description: as §1, §4

[4] = system: Primary murine neuronal cultures; assay: Cholesterol efflux from neurons; format: cell-based, mouse; conditions: standard deviation in parentheses
Description: Primary murine neuronal cultures were prepared from C57 B1/6 mice essentially as described elsewhere (23). In brief, embryonic day 18 fetuses were collected by caesarian section, their brains removed and the cerebral cortices dissected from the rest of the brain. The tissue was rinsed during these steps several times in Ca^2+- and Mg^2+-free Hank's balanced salt solution (HBSS, containing 1 mM HEPES, GIBCO). After the meninges were removed with forceps, the tissue was minced and incubated for 15 minutes at 37° C. in 0.25% trypsin (Sigma) in HBSS. The tissue was then washed twice in HBSS and twice in neuronal plating media (minimal essential media [MEM] containing 3 mg/ml glucose, 5% fetal bovine serum [FBS; GibcoBRL], 5% horse serum [HS; GibcoBRL], 100 U/ml penicillin/100 μg/ml streptomycin [Irvine Scientific] and 2 mM glutamine [Irvine Scientific]) to which 10 μg/ml DNAseI (Sigma) had been added. […] The resulting cell pellet was resuspended in plating media, and trypan blue-excluding surviving cells were counted in a hemacytometer. […]
Cholesterol efflux assays were performed as described elsewhere (24) with some modifications. […] Two hundred microliters of the culture media supernatant and 200 μl of the cell extract were counted for tritium in 2 ml Packard Ultima Gold Scint. […] Efflux is expressed as percent of the total radiolabeled cholesterol pool present in the cultures.

SREBP-1c [5] = assay: SREBP-1c gene expression in the CNS after oral dosing; format: in vivo, C57 B1/6 mice; conditions: oral gavage, Example 1 10 mg kg twice daily, T0901317 50 mg/kg once daily
Description: as §1, §2, §3

Compound | ABCA1 expression normalized to vehicle group (ABCA1; CB (cerebellum), first table) | ABCA1 expression normalized to vehicle group (ABCA1; CB (cerebellum), second table) | ABCA1 expression normalized to vehicle group (ABCA1; HC (hippocampus), first table) | ABCA1 expression normalized to vehicle group (ABCA1; HC (hippocampus), second table) | ABCG1 expression normalized to vehicle group (ABCG1 [1]; CB (cerebellum), first table) | ABCG1 expression normalized to vehicle group (ABCG1 [1]; CB (cerebellum), second table) | ABCG1 expression normalized to vehicle group (ABCG1 [1]; HC (hippocampus), first table) | ABCG1 expression normalized to vehicle group (ABCG1 [1]; HC (hippocampus), second table) | ABCG1 expression normalized to vehicle-treated group (fold induction) (ABCG1 [2]) | SREBP-1c expression normalized to vehicle-treated group (fold induction) (SREBP-1c [3]) | Cholesterol efflux as a percentage of total [3H] cholesterol [4] | SREBP-1c expression normalized to vehicle group (SREBP-1c [5]; CB (cerebellum), first table) | SREBP-1c expression normalized to vehicle group (SREBP-1c [5]; CB (cerebellum), second table) | SREBP-1c expression normalized to vehicle group (SREBP-1c [5]; HC (hippocampus), first table) | SREBP-1c expression normalized to vehicle group (SREBP-1c [5]; HC (hippocampus), second table)
O=C(O)Cc1cccc(OCCCN(Cc2cccc(C(F)(F)F)c2Cl)CC(c2ccccc2)c2ccccc2)c1 [Example 1, 2-(3-{3-[[2-Chloro-3-(trifluoromethyl)benzyl](2,2-diphenylethyl)amino]propoxy}-phenyl)acetic Acid] | 2.13 (0.354) | 1.43 (0.302) | 1.57 (0.348) | 1.26 (0.162) | 1.52 (0.073) | 1.17 (0.142) | 1.14 (0.212) | 0.89 (0.045) | 2.8 | 3.1 | 1.252 (0.179) % | 2.05 (0.427) | 1.75 (0.236) | 2.22 (0.600) | 0.71 (0.327)
O=S(=O)(c1ccccc1)N(CC(F)(F)F)c1ccc(C(O)(C(F)(F)F)C(F)(F)F)cc1 [Example T0901317, N-(2,2,2-trifluoroethyl)-N-[4-(2,2,2-trifluoro-1-hydroxy-1-trifluoromethyl-ethyl)-phenyl]-benzenesulfonamide] | 3.66 (0.389) | 2.94 (0.084) | 2.70 (0.304) | 2.69 (0.175) | 2.31 (0.081) | 1.80 (0.116) | 1.22 (0.098) | 1.37 (0.092) | 3.1 | 3.1 | 1.427 (0.031) % | 3.44 (0.632) | 2.97 (0.557) | 2.68 (0.209) | 2.16 (0.110)
